Entries after “also recorded” stand apart in the source; their conditions may differ.
What was measured:
tDCs [1] = assay: ILT-3, PD-L1 and CD86 expression on restimulated tDCs in the presence of inhibitors (flow cytometry); type: cell-based, human; conditions: for CD86 expression in tDCs in the presence of inhibitor / ILT-3 and PD-L1 expression in tDCs in the presence of inhibitor: restimulation 24 h
Method: (§1) To induce maturation, DC were treated with vaccine grade monophosphoryl lipid A (MPLA) (2 μg/ml, Cayla-InvivoGen) on day 6 or on day 7. On day 7 or on day 8, DC were harvested, washed and functional assays were performed. Control DC (cDC) were cultured without tolerising factors. For restimulation assays, tolDC and cDC were extensively washed and recultured in complete RPMI 1640 medium (Gibco) in the absence of tolerising factors for 24-72 h, with or without lipopolysaccharide (LPS, 1 μg/ml, Sigma-Aldrich), poly I:C (25 μg/ml, Cayla-InvivoGen), CD40L (1000 ng/ml, Enzo) or a mixture of pro-inflammatory cytokines containing IL-1β (10 ng/ml), TNFα (10 ng/ml), IL-6 (10 ng/ml) and IFNγ (100 ng/ml) (all from R&D systems). Supernatant and cells were collected for further analysis. Signaling inhibitors were added 1 h before the start of experiments under the specified stimulation conditions. SB203580 (p38 MAPK inhibitor at 10 μM), SP600125 (JNK/SAPK inhibitor at 20 μM), PD98059 (ERK1/2 inhibitor at 20 μM), Bay 11-7082 (NF-κB inhibitor at 10 μM), Stattic (STAT3 inhibitor at 5 μM) and rapamycin (mTOR inhibitor at 100 nM) were obtained from Calbiochem and dissolved in DMSO.
Cells were stained with fluorochrome-conjugated mAbs for 30 min at 4° C. in PBS, washed and analysed on LSRFortessa cell analyzer (BD Biosciences). Appropriate isotype controls were included. Data were analyzed using FlowJo software (Tree Star). DCs were gated according to the FSC, SSC and CD11c+ parameters for analysis. Dead cells were excluded from the analysis based on DAPI staining. For intracellular cytokine staining, T cells were stimulated with phorbol-12-myristate-13-acetate (PMA) (50 ng/ml, Sigma-Aldrich) plus ionomycin (1 μg/ml, Sigma-Aldrich) for 4-16 hours in the presence of Brefeldin A (5 μg/ml, BioLegend) before cell analysing. After stimulation, cells were washed, incubated in Fixation/Permeabilization Buffer (eBiosciences) for 30 min at 4° C., then washed in Permeabilization Buffer (eBiosciences) and stained with appropriate mAb for 30 min at 4° C.
(§2) Immature DCs were obtained from buffy coats of healthy donors as previously described [Palova-Jelinkova L, Rozkova D, Pecharova B, Bartova J, Sediva A, Tlaskalova-Hogenova H, Spisek R, Tuckova L: Gliadin fragments induce phenotypic and functional maturation of human dendritic cells. J Immunol 2005; 175:7038-7045]. […] Medium and cytokines were replenished on day 3. On day 6, DCs were harvested and seeded in 96-well plates (Nunc) at 1×10^6 cells/ml. On day 7, immature DCs were activated with vacci grade MPLA (2 μg/ml, Cayla-InvivoGen) for 24 hrs. To induce tDCs, DCs were treated with Dex on day 3 (1 μM, Medochemie) and Dex and VitD2-paricalcitol (1.5 ng/ml, Zemplar, Abbott Laboratories) on day 6. Control DCs (cDCs) were cultured without tolerising factors. For restimulation assays, tDCs and cDCs were washed and recultured in complete RPMI medium (Gibco) containing 5% human AB serum (Invitrogen) in the absence of tolerising factors for 24 h, with or without LPS (1 μg/ml, Sigma-Aldrich), polyI:C (25 μg/ml, Cayla-InvivoGen), megaCD40L™ (1000 ng/ml, Enzo Life Sciences) or mixture of pro-inflammatory cytokines containing IL-1β, TNF-α, IL-6 (all 10 ng/ml) and IFN-γ (100 ng/ml) (all from R&D systems). Signaling inhibitors were added 1 h before the start of experiments under the specified stimulation conditions. SB203580 (p38 MAPK inhibitor at 10 μM), SP600125 (JNK/SAPK inhibitor at 20 μM), PD98059 (ERK1/2 inhibitor at 20 μM), Bay 11-7082 (NF-κB inhibitor at 10 μM), Stattic (STAT3 inhibitor at 5 μM) and rapamycin (mTOR inhibitor at 100 nM) were obtained from Calbiochem and dissolved in dimethyl sulfoxide. Supernatants and cells were collected for further analysis.
Cells (2×10^5/well) were stained with fluorochrome-conjugated mAbs for 30 min at 4° C. in PBS, washed and analysed on LSR Fortessa cell analyzer (BD Biosciences). Appropriate isotype controls were included. Data were analyzed using FlowJo software (Tree Star). […]

glycolysis = assay: Metabolic quantification: lactate in DC supernatants; type: cell-based, human; conditions: pretreatment before restimulation, 24 h
Method: lactate, glucose and lactate dehydrogenase measurements: Concentrations of lactate and glucose in DC culture supernatants were measured with Glycolysis Cell-based assay kit (Cayman Chemicals) and Glucose colorimetric assay kit (BioVision), respectively. When indicated, glycolysis was suppressed by treatment with 10 mM 2-deoxyglucose (Sigma) 1 h prior exposition of DCs cultured in Cell Gro into RPMI, LPS, CC, polyI:C or CD40L. LDH activity of the DCs extracts was measured with Lactate dehydrogenase activity assay kit (Sigma).

tDCs [2] = assay: IL-10 and IL-12 production of restimulated tDCs in the presence of inhibitors (ELISA); type: cell-based, human; conditions: restimulation with CC, LPS, polyI:C, CD40L, 24 h
Method: as §1
(§3) Cell supernatants were harvested after 24 hours of DC stimulation and frozen at −80° C. until analysis. IL-10, IL-12p70, IL-6 and TNFα concentrations were determined in cell culture supernatants of activated DCs using Luminex assay (MILLIPLEX™ Human Cytokine/Chemokine Kit, Merck Millipore) and ELISA assay (DuoSet ELISA Kit, R&D systems) according to manufacturer's instructions.
as §2
Cell supernatants were harvested after 24 h of DC stimulation and frozen at −80° C. until analysis. IL-10, IL-12p70, TNF-α and TGF-β concentrations were determined using Luminex assay (MILLIPLEX™ Human Cytokine/Chemokine Kit, Merck Millipore) and ELISA assay (DuoSet ELISA Kit, R&D systems) according to the manufacturer's instructions. Cell supernatants were acidified before measuring TGF-β levels according to the manufacturer's instructions.
lactate, glucose and lactate dehydrogenase measurements: Concentrations of lactate and glucose in DC culture supernatants were measured with Glycolysis Cell-based assay kit (Cayman Chemicals) and Glucose colorimetric assay kit (BioVision), respectively. […]

allogeneic T cells = assay: Allostimulatory assay (primary MLR, CFSE dilution); type: cell-based, human; conditions: compared to tDCs without inhibitor; day 6
Method: For primary MLR assays, allogeneic T cells (2×10^5) labelled with 5 μM carboxyfluorescein succinimidyl ester (CFSE, Invitrogen) were incubated with tolDC or cDC (2×10^4) in 96-well, round-bottom plates. T cell proliferation was determined by the sequential dilution of CFSE fluorescence of T cells, as detected by flow cytometry on day 6.
T cells were obtained from PBMC non-adherent fraction. tDCs or cDCs (2×104) were cultured with allogeneic T cells (2×105) in complete RPMI medium (Gibco) containing 5% human AB serum (Invitrogen). IL-2 (20 U/ml, PeproTech) was added on day 2, 5 and 7. For primary mixed lymphocyte reaction (MLR) assays, allogeneic T cells (2×105) labelled with 5 μM carboxyfluorescein succinimidyl ester (CFSE) (Invitrogen) were incubated with tDCs or cDCs (2×104). T cell proliferation was determined by the sequential dilution of CFSE fluorescence of T cells, as detected by flow cytometry on day 6. For detection of IFN-γ, IL-10 and IL-17A production by T cells, 2×10^4 tDCs or cDCs were cultured with 2×10^5 allogeneic T cells. Cytokine production was determined by intracellular staining by flow cytometry on day 6 (IFN-γ) and day 9 (IL-10). IL-17A production from cell culture supernatants was analyzed by ELISA on day 6.

cDCs = assay: IL-10 and IL-12 production of restimulated cDCs in the presence of inhibitors (ELISA); type: cell-based, human; conditions: for IL-12 production in cDCs in the presence of inhibitor: after LPS and CC triggering
Method: as §1, §3
Immature DCs were obtained from buffy coats of healthy donors as previously described [Palova-Jelinkova L, Rozkova D, Pecharova B, Bartova J, Sediva A, Tlaskalova-Hogenova H, Spisek R, Tuckova L: Gliadin fragments induce phenotypic and functional maturation of human dendritic cells. J Immunol 2005; 175:7038-7045]. […] Medium and cytokines were replenished on day 3. On day 6, DCs were harvested and seeded in 96-well plates (Nunc) at 1×10^6 cells/ml. On day 7, immature DCs were activated with vacci grade MPLA (2 μg/ml, Cayla-InvivoGen) for 24 hrs. To induce tDCs, DCs were treated with Dex on day 3 (1 μM, Medochemie) and Dex and VitD2-paricalcitol (1.5 ng/ml, Zemplar, Abbott Laboratories) on day 6. Control DCs (cDCs) were cultured without tolerising factors. […]
Cell supernatants were harvested after 24 h of DC stimulation and frozen at −80° C. until analysis. IL-10, IL-12p70, TNF-α and TGF-β concentrations were determined using Luminex assay (MILLIPLEX™ Human Cytokine/Chemokine Kit, Merck Millipore) and ELISA assay (DuoSet ELISA Kit, R&D systems) according to the manufacturer's instructions. […]

O=CC[C@@H](O)[C@H](O)[C@H](O)CO [2-DG, 2-deoxyglucose]
CD86 expression in tDCs in the presence of inhibitor (tDCs [1]): remained unaffected | ILT-3 and PD-L1 expression in tDCs in the presence of inhibitor (tDCs [1]): failed to up-regulate ILT-3 and PD-L1 molecules | lactate generation in Dex/VitD tDCs in the presence of inhibitor (glycolysis): significantly prevented lactate generation | IL-10 production in tDCs in the presence of inhibitor (tDCs [2]): markedly decreased IL-10 production | IL-12 production in tDCs in the presence of inhibitor (tDCs [2]): remained unaffected | ability of inhibitor-pretreated tDCs to stimulate allogeneic T cell proliferation (allogeneic T cells): increased partially

Cc1ccc(S(=O)(=O)/C=C/C#N)cc1 [Bay 11-7082]
IL-10 production in tDCs in the presence of inhibitor (tDCs [2]): significantly dependent; also recorded: abrogated IL-10 production | IL-12 production in tDCs in the presence of inhibitor (tDCs [2]): did not changed IL-12 production; also recorded: did not affect IL-12 production | IL-12 production in cDCs in the presence of inhibitor (cDCs): markedly down-regulated IL-12 production

C[C@@H]1C[C@H]2[C@@H]3CCC4=CC(=O)C=C[C@]4(C)[C@@]3(F)[C@@H](O)C[C@]2(C)[C@@]1(O)C(=O)CO [Dex, Dexamethasone]
viability of DCs (DCs): did not affect the viability of DCs

COc1cccc(-c2cc(=O)c3ccccc3o2)c1N [PD98059]
PD-L1 expression in the presence of inhibitor (tDCs [1]; after LPS stimulation): down-regulated PD-L1 expression | CD86 expression in tDCs in the presence of inhibitor (tDCs [1]): significantly up-regulated CD86 expression | IL-10 production in tDCs in the presence of inhibitor (tDCs [2]): significantly dependent | ability of inhibitor-pretreated tDCs to stimulate allogeneic T cell proliferation (allogeneic T cells): increased the ability

C[S+]([O-])c1ccc(-c2nc(-c3ccncc3)c(-c3ccc(F)cc3)[nH]2)cc1 (centres unmarked) [SB203580]
ILT-3 and PD-L1 expression in tDCs in the presence of inhibitor (tDCs [1]): down-regulated ILT-3 and PD-L1 expression | IL-10 production in tDCs in the presence of inhibitor (tDCs [2]): significantly dependent | IL-12 production in tDCs in the presence of inhibitor (tDCs [2]): did not changed IL-12 production; also recorded: did not affect IL-12 production | IL-12 production in cDCs in the presence of inhibitor (cDCs): markedly down-regulated IL-12 production

O=[N+]([O-])c1ccc2c(c1)S(=O)(=O)C=C2 [Stattic]
CD86 expression in tDCs in the presence of inhibitor (tDCs [1]): significantly increased CD86 expression | ILT-3 and PD-L1 expression in tDCs in the presence of inhibitor (tDCs [1]): markedly reduced expression | IL-10 production in tDCs in the presence of inhibitor (tDCs [2]): reduced IL-10 production | IL-12 production in tDCs in the presence of inhibitor (tDCs [2]): unaffected | IL-12 production in cDCs in the presence of inhibitor (cDCs): unaffected | IL-10 production in cDCs in the presence of inhibitor (cDCs; after LPS restimulation): down-regulated IL-10 production | ability of inhibitor-pretreated tDCs to stimulate allogeneic T cell proliferation (allogeneic T cells): partial restoration

C[C@H](/C=C/[C@H](C)C(C)(C)O)[C@H]1CC[C@H]2/C(=C/C=C3C[C@@H](O)C[C@H](O)C3)CCC[C@]12C [VitD2, 19-nor-1,25-dihydroxyvitamin D2]
viability of DCs (DCs): did not affect the viability of DCs

Reference: patent US9987307B2, “Tolerogenic dendritic cells, methods of producing the same, and uses thereof” (SOTIO A.S., priority 2014, dated 2018)
